Patent US9260484B2, “Small molecule composite surfaces as inhibitors of protein-protein interactions” (Ohio State Innovation Foundation, priority 2011, dated 2016)
Entries after “also recorded” stand apart in the source; their conditions may differ. Like-named read-outs stand apart in the source and are kept apart here. Numbered stars: 1 amine (or outer) side, 2 acyl side, 3 side chain; on linkers, the order of the positions; unused ones are H or OH. Bridge positions count the residues as written; N and C are the ends. Square brackets hold non-standard residues; d marks the D form. Peptide text beside a SMILES is read from it. dβ3h(hPhe) = O=C(C[C@@H](CCc1ccccc1)N[*:1])[*:2]; Phe(4-F) = N[C@@H](Cc1ccc(F)cc1)C(=O)O; d2Nal = N[C@H](Cc1ccc2ccccc2c1)C(=O)O; X1 = CC(C)(CO[*:2])C(=O)C(=O)[*:1]; dNle = CCCC[C@@H](N)C(=O)O; Pip = O=C(O)[C@@H]1CCCCN1

Legend:
[1] = target: T1, FKBP (Homo sapiens, UniProt P62942); assay: fluorescence polarization (FA) competition assay for binding to FKBP
T1 construct: 200 nM recombinant FKBP
T1 sequence (P62942 whole entry): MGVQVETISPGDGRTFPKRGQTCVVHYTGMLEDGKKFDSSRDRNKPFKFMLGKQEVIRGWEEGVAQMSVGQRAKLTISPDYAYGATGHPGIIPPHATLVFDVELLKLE
Method: To facilitate solid-phase synthesis, an invariant glutamine was added to the C-terminal side of the R^1 residue, for the purpose of backbone peptide cyclization and providing an anchor for attachment to the solid support. For this set of compounds, the dipeptide Ala-Ala was used as the effector domain. The rapalogs were tested for binding to FKBP by a fluorescence polarization competition assay^22,23. SLF^24, was labeled with the fluorescent dye fluorescein^23. Binding of the labeled ligand to FKBP increases its fluorescence anisotropy (FA) values. Addition of an unlabeled ligand to the reaction inhibits the binding of SLF to FKBP and therefore decreases the FA values. […] Subsequently, the IC50 values were converted into KI values based on the Cheng-Prusoff equation.
A previously reported synthetic ligand of FKBP^46 (SLF in FIG. 2), was labeled with the fluorescent dye fluorescein^20. Binding of the labeled ligand to FKBP increases its fluorescence anisotropy (FA) value.
The fluorescence polarization based competition assay was performed in a 384-well plate. […] After the addition of the rapalogs as the last component, the binding reactions were incubated for 1 h at room temperature to reach binding equilibrium. Anisotropy values were measured on a FlexStation 3 plate reader (Molecular Devices, Sunnyvale, Calif.).

[2] = target: K-Ras and PI3 kinase (Homo sapiens, UniProt P01116, G12V); assay: bead assay: K-Ras binding to immobilized Myc-tagged effector protein; conditions: 10 μM compound; Texas red-labeled GST-K-Ras 100 nM
K-Ras and PI3 kinase, sequence (P01116 1-188 isoform P01116-2 G12V): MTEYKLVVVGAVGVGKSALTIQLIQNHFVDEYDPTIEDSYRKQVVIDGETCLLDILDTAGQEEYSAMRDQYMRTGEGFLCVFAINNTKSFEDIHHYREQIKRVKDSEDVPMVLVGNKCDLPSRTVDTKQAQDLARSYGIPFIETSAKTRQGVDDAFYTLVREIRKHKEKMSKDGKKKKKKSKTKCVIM
Method: (§1) Compound B12 was also assayed for its ability to inhibit the PPI between K-Ras and its effector proteins including PI3 kinase, Tiam, and RalGDS. The Myc-tagged effector proteins were immobilized on protein A-beads with an anti-Myc antibody.

[3] = target: K-Ras and Tiam (Homo sapiens, UniProt P01116, G12V); assay: as above; conditions: 10 μM compound; Texas red-labeled GST-K-Ras 100 nM
K-Ras and Tiam, sequence (P01116 1-188 isoform P01116-2 G12V): as above
Method: as §1

[4] = target: K-Ras and RalGDS (Homo sapiens, UniProt P01116, G12V); assay: as above; conditions: 10 μM compound; Texas red-labeled GST-K-Ras 100 nM
K-Ras and RalGDS, sequence (P01116 1-188 isoform P01116-2 G12V): as above
Text: The Myc-tagged effector proteins were immobilized on protein A-beads with an anti-Myc antibody.

[5] = test system: A549 lung cancer cell line; assay: MTT viability assay; format: cell-based, human
Method: (§2) FIG. 14. MTT viability assay with H358 and A549 lung cancer cell lines (both have mutant K-Ras). The assay was performed to assess the effect of compound B12 on proliferation and survival of these cell lines.
(§3) Finally, preliminary cellular assays were performed with compound […]. Singh et al. used RNA interference to down regulate mutant K-RAS in a large number of human cancer cell lines.^102 They reported that the H358 cell line is very sensitive to losing mutant K-Ras whereas the A549 cell line is hardly affected. Both are lung cancer cell lines.

[6] = test system: H358 lung cancer cell line; assay: MTT viability assay; format: cell-based, human
Method: as §2, §3

[7] = target: FKBP (no GST) (Homo sapiens, UniProt P62942); assay: fluorescence polarization binding of FITC-labeled compound to FKBP
FKBP (no GST), sequence (P62942 whole entry): as the sequence (P62942 whole entry) above

[8] = Table 2, converted from IC50 by Cheng-Prusoff equation, read-out: Ki

`C[C@@H]1NC(=O)[C@H](C)NC(=O)[C@H](CCC(N)=O)NC(=O)[C@H](C)NC(=O)[C@@H]2CCCCN2C(=O)C(=O)C(C)(C)COC(=O)[C@@H](C)NC1=O` [Compound 2a] (HELM PEPTIDE1{[O=C([C@@H]1CCCCN1[*:1])[*:2]].A.Q.A.A.[dA]}|CHEM1{[CC(C)(CO[*:2])C(=O)C(=O)[*:1]]}$PEPTIDE1,CHEM1,1:R1-1:R1|PEPTIDE1,CHEM1,6:R2-1:R2$$$V2.0) gave a Ki [1, 8] of 7000 ± 1000 nM.
In the case of `C[C@@H]1NC(=O)[C@H](C)NC(=O)[C@H](CCC(N)=O)NC(=O)C[C@H](CCc2ccccc2)NC(=O)[C@@H]2CCCCN2C(=O)C(=O)C(C)(C)COC(=O)[C@H](Cc2ccccc2)NC1=O` [Compound 2j], the Ki [1] is reported as 800 ± 100 nM.
For `C[C@@H]1NC(=O)[C@H](C)NC(=O)[C@H](CCC(N)=O)NC(=O)C[C@@H](CCc2ccccc2)NC(=O)[C@@H]2CCCCN2C(=O)C(=O)C(C)(C)COC(=O)[C@@H](C)NC(=O)[C@H](C)NC1=O` [Compound 2p] ([Pip][dβ3h(hPhe)]QAAA[dA]; linker N-C via X1), the Ki [1, 8] was 180 ± 60 nM.
`C[C@@H]1NC(=O)[C@H](C)NC(=O)[C@H](CCC(N)=O)NC(=O)C[C@@H](CCc2ccccc2)NC(=O)[C@@H]2CCCCN2C(=O)C(=O)C(C)(C)COC(=O)[C@H]([C@@H](C)O)NC(=O)[C@H](C)NC1=O` [Compound 2r] ([Pip][dβ3h(hPhe)]QAAAT; linker N-C via X1) showed a Ki [1, 8] of 300 ± 100 nM.
`C[C@@H]1NC(=O)[C@H](CCC(N)=O)NC(=O)C[C@@H](CCc2ccccc2)NC(=O)[C@@H]2CCCCN2C(=O)C(=O)C(C)(C)COC(=O)[C@H](Cc2ccccc2)NC(=O)[C@H](C)NC(=O)[C@@H](C)NC1=O` [Compound 2s] ([Pip][dβ3h(hPhe)]QA[dA]AF; linker N-C via X1) gave a Ki [1] of 900 ± 200 nM.
For `CCCC[C@H]1NC(=O)[C@H](Cc2ccc(F)cc2)NC(=O)[C@H](CCCNC(=N)N)NC(=O)[C@@H](Cc2ccc3ccccc3c2)NC(=O)[C@H](CCCNC(=N)N)NC(=O)[C@H](CCCNC(=N)N)NC(=O)[C@H](CCC(N)=O)NC(=O)C[C@@H](CCc2ccccc2)NC(=O)[C@@H]2CCCCN2C(=O)C(=O)C(C)(C)COC1=O` [Compound C12] ([Pip][dβ3h(hPhe)]QRR[d2Nal]R[Phe(4-F)][dNle]; linker N-C via X1), the “binding of GST-KRas to immobilized PI3 kinase” value [2] was “completely blocked”, the “binding of GST-KRas to immobilized Tiam” value [3] was “completely blocked” and the “binding of GST-KRas to immobilized RalGDS” value [4] was “completely blocked; also recorded: Disruption”. For the same molecule, the IC50 ([5]; A549 cells, proliferation and survival, preliminary) was about 50000 nM, the “sensitivity of cells to compound” value ([5]; FIG. 14) was “significantly less sensitive” and the “sensitivity of cells to compound” value ([6]; FIG. 14) was “sensitive”. For the same molecule, the IC50 ([6]; H358 cells, proliferation and survival, preliminary) was about 10000 nM.
`CCCC[C@H]1NC(=O)[C@H](Cc2ccc(F)cc2)NC(=O)[C@H](CCCN=C(N)N)NC(=O)[C@@H](Cc2ccc3ccccc3c2)NC(=O)[C@H](CCCN=C(N)N)NC(=O)[C@H](CCCN=C(N)N)NC(=O)[C@H](CCC(N)=O)NC(=O)C[C@@H](CCc2ccccc2)NC(=O)[C@@H]2CCCCN2C(=O)C(=O)C(C)(C)COC1=O` [Compound C12] ([Pip][dβ3h(hPhe)]QRR[d2Nal]R[Phe(4-F)][dNle]; linker N-C via X1) gave a Kd [7] of 500 nM.
